Assay results published in paper PMC6678253, “The 1,3,5-Triazine Derivatives as Innovative Chemical Family of 5-HT6 Serotonin Receptor Agents with Therapeutic Perspectives for Cognitive Impairment” (International Journal of Molecular Sciences, 2019).
Where two headings read alike, the source gives them in different places.

Legend:
P-glycoprotein (Pgp) = P-glycoprotein (Pgp) (Homo sapiens, UniProt P08183); test: Luminescent Pgp-Glo Assay System; conditions: 100 μM, 40 min, 37 °C; for Pgp basal activity: > 100% = substrate, increase statistically insignificant
Description: Moreover, the luminescence Pgp-Glo™ Assay was used in order to determine their influence on P-glycoprotein (Pgp) activity, the main efflux pump in the transport across blood–brain barrier (BBB) and the intestinal epithelium.
The luminescent Pgp-Glo™ Assay System used for determination of 5HT6R ligands’ influence on P-glycoprotein activity was purchased from Promega (Madison, WI, USA). […] The luminescence signal was measured by microplate reader EnSpire PerkinElmer (Waltham, MA, USA).

[1] = test system: human embryonic kidney HEK-293 cell line; test: Cytotoxicity, MTS assay in HEK-293
Description: (§2) The cells’ viability was determined by CellTiter 96® AQueous Non-Radioactive Cell Proliferation Assay (MTS), which was purchased from Promega (Madison, WI, USA). The absorbance was measured using a microplate reader EnSpire (PerkinElmer, Waltham, MA USA) at 490 nm. All compounds were tested in quadruplicate. For ATP-level measurement the cells were growth in similar way as in cytotoxicity assays. The CellTiter-Glo® Luminescent Cell Viability Assay and protocol was provided by Promega (Madison, WI, USA). The luminescence was measured after 2 hours-long cells’ exposition on tested compounds and the positive control CCCP by a microplate reader EnSpire (PerkinElmer, Waltham, MA USA) at luminescence mode. All compounds were tested in triplicate.

5-HT6 = biological target: 5-HT6; set-up: method as in PMID 28441580, PMID 30530073, PMID 31229876; conditions: human receptor stably expressed in HEK-293; determined previously; read-out: Ki 5-HT6 [3H]-LSD; cited from earlier work
5-HT1A [2] = biological target: T1, 5-HT1A (Homo sapiens, UniProt P08908); set-up: method as in PMID 28441580, PMID 30530073, PMID 31229876; conditions: human receptor stably expressed in HEK-293; determined previously; read-out: Ki 5-HT1A [3H]-8-OH-DPAT; cited from earlier work
T1 construct: expressed in transfected cells; host or cells: HEK-293
T1 sequence (P08908 1-422): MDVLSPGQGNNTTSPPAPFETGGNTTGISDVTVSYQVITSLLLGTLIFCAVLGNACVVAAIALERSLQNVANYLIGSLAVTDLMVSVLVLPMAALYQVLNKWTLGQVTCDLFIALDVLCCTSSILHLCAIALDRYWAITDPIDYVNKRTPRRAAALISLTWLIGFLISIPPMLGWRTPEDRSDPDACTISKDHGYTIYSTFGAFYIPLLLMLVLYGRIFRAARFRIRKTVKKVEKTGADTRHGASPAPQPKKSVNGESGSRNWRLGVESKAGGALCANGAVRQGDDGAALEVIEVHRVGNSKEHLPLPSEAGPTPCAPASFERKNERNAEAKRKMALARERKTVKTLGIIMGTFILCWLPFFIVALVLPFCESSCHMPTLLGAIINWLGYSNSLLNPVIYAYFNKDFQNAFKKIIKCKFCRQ

[3] = Metabolic stability in human liver microsomes (HLMs); conditions: for Clint: HLMs 1 mg/mL, 50 µM compound, Clint ≤ 8.6 = low clearance; for half-life at 50 µM: human, human liver microsomes
Description: The t1/2 values and intrinsic clearances (Clint) were calculated using IS by protocols and formulas proposed by Obach [30].

5-HT2A = biological target: T2, 5-HT2A (Homo sapiens, UniProt P28223); test: Radioligand binding assay, 5-HT2A ([3H]-ketanserin displacement); conditions: human receptor stably expressed in HEK-293
T2 construct: expressed in transfected cells; host or cells: HEK-293

5-HT7 [4] = biological target: T3, 5-HT7 (Homo sapiens, UniProt P34969); set-up: method as in PMID 28441580, PMID 30530073, PMID 31229876; conditions: human receptor stably expressed in HEK-293; determined previously; read-out: Ki 5-HT7 [3H]-5-CT; cited from earlier work
T3 construct: expressed in transfected cells; host or cells: HEK-293

[5] = Parallel artificial membrane permeability assay (PAMPA); assay type: in vitro ADME; conditions: PBS pH 7.4, 5 h, room temperature, breakpoint for permeable compounds Pe ≥ 1.5 × 10^−6 cm/s, read-out: Pe (permeability coefficient) ± SD
D2L [6] = biological target: T4, D2L (Homo sapiens, UniProt P14416); set-up: method as in PMID 28441580, PMID 30530073, PMID 31229876; conditions: human receptor stably expressed in HEK-293; determined previously; read-out: Ki D2L [3H]-Raclopride; cited from earlier work
T4 construct: expressed in transfected cells; host or cells: HEK-293

CYP2D6 = biological target: T5, CYP2D6 (Homo sapiens, UniProt P10635); test: CYP2D6 P450-Glo assay; assay type: in vitro ADME; conditions: for CYP2D6 activity (inhibition): at 25 µM
T5 construct: purchased Promega (Madison, WI, USA)
Source text: (§1) The potential risk of drug-drug interactions (DDI) were examined by luminescence-based CYP3A4 and CYP2D6 P450-Glo™ assays (Promega®). These two CYP isoforms are responsible for metabolism of approximately half of all marketed drugs, and an influence on their activity may be a source of DDI danger. […] The luminescent CYP3A4 P450-Glo™ and CYP2D6 P450-Glo™ Promega® (Madison, WI, USA) were used for investigation of potential drug-drug interactions. All assays and protocols were described before.

[7] = Novel object recognition test (NORT), scopolamine-induced memory impairment; assay type: in vivo, rat; conditions: rats, 1 mg/kg; ANOVA NS
Source text: Taking into account the ability of various 5-HT6R antagonists to improve cognitive deficits, the NORT assay was used to study the influence of the investigated compounds on visual episodic memory. This test is based on the spontaneous exploration of novel and familiar objects. The administration of scopolamine reduces an ability to discriminate a novel object from a familiar one, and any compounds that have a protective effect against this deficit are regarded as potentially useful for treating cognitive deficits that are characteristic for Alzheimer’s disease and other dementia connected disorders.
Five days before the experiment, the rats were transferred to the laboratory, labeled and, thereafter, left to acclimate to the new environment. The animals were handling every five days before experiments to minimize the stress reaction. The protocol was adapted from the original work. The test session comprising of two trials separated by an inter-trial interval (ITI) of 1 h was carried out on the next day. […]
The animals explored the objects by looking, licking, sniffing or touching the object but not when leaning against, standing or sitting on the object. […] Exploration time of the objects was measured by blind experimenter. Based on exploration time (E) of two objects during T2, discrimination index (DI) was calculated according to the formula: DI = (EB − EA)/(EA + […]). […]

5-HT7 [8] = biological target: T3, 5-HT7; test: Radioligand binding assay, 5-HT7 ([3H]-5-CT displacement); conditions: human receptor stably expressed in HEK-293
hepatoma HepG2 cell line [9] = test: Hepatotoxicity, MTS assay in HepG2; conditions: 72 h; 100 µM
Description: as §2

D2L [10] = biological target: T4, D2L; test: Radioligand binding assay, D2L ([3H]-raclopride displacement); conditions: human receptor stably expressed in HEK-293
[11] = Vogel conflict drinking test; conditions: rats
Description: It was consisted of polycarbonate cages (dimensions 26.5 cm × 15 cm × 42 cm), equipped with a grid floor made from stainless steel bars and drinking bottles containing tap water. Experimental chambers were connected to PC software by control chassis and electric shocks’ generator. On the first day of the experiment, the rats were adapted to the test chambers and drink water from the bottle spout for 10 min. Afterwards, the rats were returned to their home cages and were given 30 min free access to water followed by a 24-h water deprivation period. The adaptation session and water deprivation protocols were repeated on the second day of the experiment. On the third day the rats were placed again in the test chambers 60 min after investigated and reference compounds administration and were given free access to the drinking tube. Recording data started immediately after the first lick and rats were punished with an electric shock (0.5 mA, lasting 1 s) delivered to the metal drinking tube every 20 licks. The number of licks and the number of shocks received during a 5-min experimental session were recorded automatically.

CYP3A4 = biological target: T6, CYP3A4 (Homo sapiens, UniProt P08684); test: CYP3A4 P450-Glo assay; assay type: in vitro ADME; conditions: 0.01-25 μM; effect of 4 at 10 and 25 µM
T6 construct: purchased Promega (Madison, WI, USA)
Source text: as §1

5-HT1A [12] = biological target: T1, 5-HT1A; test: Radioligand binding assay, 5-HT1A ([3H]-8-OH-DPAT displacement); conditions: human receptor stably expressed in HEK-293
hepatoma HepG2 cell line [13] = test: ATP level in HepG2 (CellTiter-Glo); conditions: 2 h exposure, 10 µM
Description: as §2

[14] = 72 h, only at 100 µM, 1 p < 0.001, 2 p < 0.05

T3 sequence (P34969 1-432): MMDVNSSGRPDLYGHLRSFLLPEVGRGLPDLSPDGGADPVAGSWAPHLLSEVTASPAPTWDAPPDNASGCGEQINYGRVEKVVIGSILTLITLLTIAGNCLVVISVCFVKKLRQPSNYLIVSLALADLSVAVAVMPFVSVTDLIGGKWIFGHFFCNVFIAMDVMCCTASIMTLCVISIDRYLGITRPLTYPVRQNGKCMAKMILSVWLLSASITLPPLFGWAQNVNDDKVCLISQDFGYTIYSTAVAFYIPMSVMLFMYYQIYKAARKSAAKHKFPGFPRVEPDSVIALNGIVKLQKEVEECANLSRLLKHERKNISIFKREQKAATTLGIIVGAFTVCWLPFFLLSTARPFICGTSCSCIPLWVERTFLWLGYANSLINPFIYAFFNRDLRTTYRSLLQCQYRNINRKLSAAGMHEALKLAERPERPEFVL
T5 sequence (P10635 whole entry): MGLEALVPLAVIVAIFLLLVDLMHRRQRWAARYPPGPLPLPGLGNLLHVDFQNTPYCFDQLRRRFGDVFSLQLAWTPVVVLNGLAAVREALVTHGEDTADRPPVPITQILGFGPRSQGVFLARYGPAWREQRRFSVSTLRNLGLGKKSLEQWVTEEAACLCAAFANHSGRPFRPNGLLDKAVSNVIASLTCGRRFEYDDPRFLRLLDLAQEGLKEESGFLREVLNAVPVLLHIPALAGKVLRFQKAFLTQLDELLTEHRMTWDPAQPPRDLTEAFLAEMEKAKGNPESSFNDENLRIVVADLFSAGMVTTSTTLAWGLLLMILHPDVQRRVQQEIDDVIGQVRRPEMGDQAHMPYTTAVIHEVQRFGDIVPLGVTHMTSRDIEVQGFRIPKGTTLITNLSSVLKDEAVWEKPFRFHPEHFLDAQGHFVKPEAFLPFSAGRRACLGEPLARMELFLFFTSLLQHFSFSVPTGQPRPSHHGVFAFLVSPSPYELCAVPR
T4 sequence (P14416 whole entry): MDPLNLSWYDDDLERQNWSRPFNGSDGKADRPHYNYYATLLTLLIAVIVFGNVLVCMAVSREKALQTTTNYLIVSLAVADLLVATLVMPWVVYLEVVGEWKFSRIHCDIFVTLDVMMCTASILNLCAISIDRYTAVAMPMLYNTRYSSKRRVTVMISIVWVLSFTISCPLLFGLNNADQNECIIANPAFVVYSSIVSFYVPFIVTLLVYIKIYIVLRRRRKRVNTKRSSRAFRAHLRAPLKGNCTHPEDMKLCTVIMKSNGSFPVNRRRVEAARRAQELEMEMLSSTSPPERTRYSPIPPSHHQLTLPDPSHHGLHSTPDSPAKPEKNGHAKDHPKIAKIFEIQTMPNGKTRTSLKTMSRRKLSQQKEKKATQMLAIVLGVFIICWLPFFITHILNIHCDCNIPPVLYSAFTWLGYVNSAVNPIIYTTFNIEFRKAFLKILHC
Chain of P-glycoprotein (Pgp) (P08183 whole entry): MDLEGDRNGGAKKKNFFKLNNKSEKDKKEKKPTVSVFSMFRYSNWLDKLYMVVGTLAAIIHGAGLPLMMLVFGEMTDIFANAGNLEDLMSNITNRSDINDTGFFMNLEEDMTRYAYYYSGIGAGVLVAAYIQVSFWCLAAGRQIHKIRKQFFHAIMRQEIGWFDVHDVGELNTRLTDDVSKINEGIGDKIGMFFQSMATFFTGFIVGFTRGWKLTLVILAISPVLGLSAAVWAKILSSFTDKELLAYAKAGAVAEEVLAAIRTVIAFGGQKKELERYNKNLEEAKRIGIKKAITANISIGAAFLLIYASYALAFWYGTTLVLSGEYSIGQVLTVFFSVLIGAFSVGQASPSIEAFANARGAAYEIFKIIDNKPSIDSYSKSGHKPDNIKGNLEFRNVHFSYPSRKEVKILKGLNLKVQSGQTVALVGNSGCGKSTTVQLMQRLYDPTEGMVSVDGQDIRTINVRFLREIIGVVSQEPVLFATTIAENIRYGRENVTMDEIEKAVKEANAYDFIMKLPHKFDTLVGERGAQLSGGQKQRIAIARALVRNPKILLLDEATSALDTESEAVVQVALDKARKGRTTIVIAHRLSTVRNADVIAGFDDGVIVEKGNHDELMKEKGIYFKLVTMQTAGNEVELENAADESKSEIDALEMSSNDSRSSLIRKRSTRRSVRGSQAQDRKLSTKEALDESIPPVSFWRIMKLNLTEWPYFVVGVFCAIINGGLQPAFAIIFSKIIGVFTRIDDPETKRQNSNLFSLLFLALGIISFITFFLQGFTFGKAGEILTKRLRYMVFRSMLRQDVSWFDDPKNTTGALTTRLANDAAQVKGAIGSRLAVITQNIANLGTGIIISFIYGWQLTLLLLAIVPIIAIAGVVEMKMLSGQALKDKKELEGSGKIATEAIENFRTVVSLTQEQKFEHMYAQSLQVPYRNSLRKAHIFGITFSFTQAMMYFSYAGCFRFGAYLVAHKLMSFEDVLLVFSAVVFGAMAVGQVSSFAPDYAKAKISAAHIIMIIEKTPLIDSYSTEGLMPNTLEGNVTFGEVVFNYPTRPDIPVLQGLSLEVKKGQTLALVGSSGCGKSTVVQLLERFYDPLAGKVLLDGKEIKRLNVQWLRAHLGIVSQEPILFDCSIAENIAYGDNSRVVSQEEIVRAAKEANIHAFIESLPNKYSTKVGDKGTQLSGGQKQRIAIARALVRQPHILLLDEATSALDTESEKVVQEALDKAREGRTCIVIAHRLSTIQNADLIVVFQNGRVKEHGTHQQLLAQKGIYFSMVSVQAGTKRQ
T2 sequence (P28223 whole entry): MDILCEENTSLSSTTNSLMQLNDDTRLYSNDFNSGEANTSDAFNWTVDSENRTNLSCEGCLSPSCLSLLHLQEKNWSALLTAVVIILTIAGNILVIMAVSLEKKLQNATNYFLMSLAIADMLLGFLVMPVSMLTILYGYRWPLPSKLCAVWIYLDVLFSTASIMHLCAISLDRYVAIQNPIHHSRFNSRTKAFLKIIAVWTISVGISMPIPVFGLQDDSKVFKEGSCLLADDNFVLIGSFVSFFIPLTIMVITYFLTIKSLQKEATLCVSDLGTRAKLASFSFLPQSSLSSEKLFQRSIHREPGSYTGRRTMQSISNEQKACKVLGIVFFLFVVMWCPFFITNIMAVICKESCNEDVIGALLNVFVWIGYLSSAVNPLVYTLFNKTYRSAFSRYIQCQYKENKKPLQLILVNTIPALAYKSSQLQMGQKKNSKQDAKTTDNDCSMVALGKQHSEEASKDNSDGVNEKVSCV
T6 sequence (P08684 whole entry): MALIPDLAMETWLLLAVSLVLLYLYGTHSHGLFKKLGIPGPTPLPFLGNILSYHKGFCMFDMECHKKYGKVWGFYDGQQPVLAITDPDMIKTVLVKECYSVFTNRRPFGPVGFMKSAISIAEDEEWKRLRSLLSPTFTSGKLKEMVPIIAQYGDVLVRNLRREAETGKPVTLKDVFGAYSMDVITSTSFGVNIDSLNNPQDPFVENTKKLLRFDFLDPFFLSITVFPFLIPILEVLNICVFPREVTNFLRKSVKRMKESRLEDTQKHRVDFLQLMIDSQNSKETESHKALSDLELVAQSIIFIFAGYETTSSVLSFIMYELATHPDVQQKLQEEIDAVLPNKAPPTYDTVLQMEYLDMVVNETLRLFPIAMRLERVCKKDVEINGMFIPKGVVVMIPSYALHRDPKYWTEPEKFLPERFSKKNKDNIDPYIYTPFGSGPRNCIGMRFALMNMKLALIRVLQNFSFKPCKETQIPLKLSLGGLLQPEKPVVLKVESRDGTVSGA

For `CN1CCN(c2nc(N)nc(Cc3cccc(Cl)c3)n2)CC1` [Compound 1], the Pgp basal activity (P-glycoprotein (Pgp)) is given as ~ 135%, the HEK-293 cells viability [1, 14] is given as “significant effect” and the Ki (5-HT6) is given as 28 nM. For the same molecule, the Ki (5-HT1A [2]) was 4950 nM, the Clint [3] was 7.56 mL/min/kg and the half-life at 50 µM [3] was 1.38 h. For the same molecule, the Ki (5-HT2A) was 272 nM, the Ki (5-HT7 [4]) was 8710 nM and the Papp at 5 h, 200 µM [5] was 23.6 ± 2.14 ×10⁻⁶ cm/s. For the same molecule, the Ki (D2L [6]) was 838 nM.

In the case of `Cc1cccc(Cc2nc(N)nc(N3CCN(C)CC3)n2)c1` [Compound 2], the “effect on Pgp basal activity” value (P-glycoprotein (Pgp); p < 0.001) is listed as “inhibited significantly”, the HEK-293 cells viability [1, 14] is listed as “significant effect” and the Ki (5-HT1A [2]) is listed as 10200 nM. For the same molecule, the Clint [3] was 3.96 mL/min/kg, the half-life at 50 µM [3] was 2.63 h and the Ki (5-HT2A) was 329 nM. The Ki (5-HT7 [4]) was 16200 nM, the “CYP2D6 activity (induction)” value (CYP2D6; at 10 and 25 µM) was ~ 148 % of the control activity and the Papp at 5 h, 200 µM [5] was 19.9 ± 2.68 ×10⁻⁶ cm/s. The Ki (D2L [6]) was 1190 nM.

For `CCN(C)C(=O)Oc1cccc([C@H](C)N(C)C)c1` [rivastigmine], the “effect on scopolamine induced learning deficits in NORT” value [7] was “similar, but lower pro-cognitive effects”.

With `Cc1ccc(C(C)C)c(OCc2nc(N)nc(N3CCN(C)CC3)n2)c1` [Compound 4, 4-((2-isopropyl-5-methylphenoxy)methyl)-6-(4-methylpiperazin-1-yl)-1,3,5-triazin-2-amine] the Pgp basal activity (P-glycoprotein (Pgp)) was ~ 135%, the “lowest toxic dose vs 5-HT6R Ki” value ([1]; 10 μM vs Ki = 11 nM) was ~ 1000 fold and the HEK-293 cells viability ([1]; 72 h, at 10 and 100 µM, p < 0.001) was “statistically significant decrease in cells viability”. For the same molecule, the lowest toxic dose ([1]; cytotoxicity, 72 h) was 10 µM, the Ki (5-HT7 [8]) was 12000 nM and the “HepG2 viability (hepatotoxic effect)” value (hepatoma HepG2 cell line [9]) was “hepatotoxic effect”. The Ki (5-HT6) was 11 nM, the Ki (D2L [10]) was 1090 nM and the “increase of the number of licks” value ([11]; 0.3 mg/kg i.p., p < 0.0001) was “about 76%”. The “anxiolytic-like activity in Vogel conflict drinking test” value (“anxiolytic-like activity” for short) ([11]; i.p. 60 min before test) was “anxiolytic-like activity was shown”, the Clint [3] was 6.30 mL/min/kg and the half-life at 50 µM [3] was 1.65 h. For the same molecule, the Ki (5-HT2A) was 430 nM, the “CYP2D6 activity (inhibition)” value (CYP2D6) was ~ 75 % of the control activity and the Papp at 5 h, 200 µM [5] was 12.3 ± 1.98 ×10⁻⁶ cm/s. The “influence on CYP3A4 activity” value (CYP3A4) was “slight induction effect” and the Ki (5-HT1A [12]) was 12500 nM.

In the case of `CN1CCN(c2nc(N)nc(Cc3c[nH]c4ccccc34)n2)CC1` [Compound 3, 4-((1H-indol-3-yl)methyl)-6-(4-methylpiperazin-1-yl)-1,3,5-triazin-2-amine], the Pgp basal activity (P-glycoprotein (Pgp)) is listed as ~ 135%, the Ki (5-HT6) is listed as 22 nM and the “increase of the number of shocks” value ([11]; 1 mg/kg i.p., p < 0.05) is listed as “about 82%”. The “anxiolytic-like activity” value ([11]; i.p. 60 min before test) was “anxiolytic-like activity was shown”, the Clint [3] was 2.34 mL/min/kg and the half-life at 50 µM [3] was 4.45 h. The Ki (5-HT2A) was 1760 nM, the “CYP2D6 activity (inhibition)” value (CYP2D6) was ~ 75 % of the control activity and the Papp at 5 h, 200 µM [5] was 17.9 ± 5.76 ×10⁻⁶ cm/s.

In the case of `COc1ccc(S(=O)(=O)Nc2cc(Cl)cc(Cl)c2OC)cc1N1CCNCC1` [SB-399885, N-[3,5-dichloro-2-(methoxy)-phenyl]-4-(methoxy)-1-(piperazinyl)benzenesulfonamide, reference compound], the “anxiolytic-like activity” value ([11]; 1 and 3 mg/kg i.p.) is reported as “exerted anxiolytic-like activity” and the “anxiolytic-like activity” value ([11]; i.p. 60 min before test) is reported as “anxiolytic-like activity was shown”.

With `N#CC(C#N)=NNc1cccc(Cl)c1` [CCCP, carbonyl cyanide 3-chlorophenylhydrazone] the “ATP level in HepG2” value (hepatoma HepG2 cell line [13]) was ~ 33 % of control.
